From article PMC3760004 (Cancer research, 2013)
“Also recorded” adds a separate entry of the source.

Legend:
KRAS-driven lung tumors = assay: Tumor volume by MRI in KRAS G12D driven lung cancer model; type: in vivo; details: KRAS G12D mice, 4 weeks, Torin2 40 mg/kg q.d., AZD6244 25 mg/kg q.d.
pERK = assay: Pharmacodynamics by immunohistochemistry in KRAS G12D lung tumors; type: in vivo, Mice; details: for pERK1/2 levels: after 4-week treatment
Calu1 = assay: 72-hour proliferation assay; type: cell-based, human
mTORC1 [1] = biological target: T1, mTORC1 (Homo sapiens, UniProt P42345); assay: Cellular wash-out assay, S6KT389 phosphorylation, HCT116 cells; type: cell-based; details: 100 nM for 1 hour, then wash-out
mTORC2 [2] = biological target: T2, mTORC2 (Homo sapiens, UniProt P42345); assay: Cellular wash-out assay, AktS473 phosphorylation, HCT116 cells; type: cell-based; details: 100 nM for 1 hour, then wash-out
ATM [3] = biological target: T3, ATM (Homo sapiens, UniProt Q13315); assay: Kinativ chemical proteomics profiling in cellular lysates; type: binding
T3 sequence (Q13315 whole entry, species assumed): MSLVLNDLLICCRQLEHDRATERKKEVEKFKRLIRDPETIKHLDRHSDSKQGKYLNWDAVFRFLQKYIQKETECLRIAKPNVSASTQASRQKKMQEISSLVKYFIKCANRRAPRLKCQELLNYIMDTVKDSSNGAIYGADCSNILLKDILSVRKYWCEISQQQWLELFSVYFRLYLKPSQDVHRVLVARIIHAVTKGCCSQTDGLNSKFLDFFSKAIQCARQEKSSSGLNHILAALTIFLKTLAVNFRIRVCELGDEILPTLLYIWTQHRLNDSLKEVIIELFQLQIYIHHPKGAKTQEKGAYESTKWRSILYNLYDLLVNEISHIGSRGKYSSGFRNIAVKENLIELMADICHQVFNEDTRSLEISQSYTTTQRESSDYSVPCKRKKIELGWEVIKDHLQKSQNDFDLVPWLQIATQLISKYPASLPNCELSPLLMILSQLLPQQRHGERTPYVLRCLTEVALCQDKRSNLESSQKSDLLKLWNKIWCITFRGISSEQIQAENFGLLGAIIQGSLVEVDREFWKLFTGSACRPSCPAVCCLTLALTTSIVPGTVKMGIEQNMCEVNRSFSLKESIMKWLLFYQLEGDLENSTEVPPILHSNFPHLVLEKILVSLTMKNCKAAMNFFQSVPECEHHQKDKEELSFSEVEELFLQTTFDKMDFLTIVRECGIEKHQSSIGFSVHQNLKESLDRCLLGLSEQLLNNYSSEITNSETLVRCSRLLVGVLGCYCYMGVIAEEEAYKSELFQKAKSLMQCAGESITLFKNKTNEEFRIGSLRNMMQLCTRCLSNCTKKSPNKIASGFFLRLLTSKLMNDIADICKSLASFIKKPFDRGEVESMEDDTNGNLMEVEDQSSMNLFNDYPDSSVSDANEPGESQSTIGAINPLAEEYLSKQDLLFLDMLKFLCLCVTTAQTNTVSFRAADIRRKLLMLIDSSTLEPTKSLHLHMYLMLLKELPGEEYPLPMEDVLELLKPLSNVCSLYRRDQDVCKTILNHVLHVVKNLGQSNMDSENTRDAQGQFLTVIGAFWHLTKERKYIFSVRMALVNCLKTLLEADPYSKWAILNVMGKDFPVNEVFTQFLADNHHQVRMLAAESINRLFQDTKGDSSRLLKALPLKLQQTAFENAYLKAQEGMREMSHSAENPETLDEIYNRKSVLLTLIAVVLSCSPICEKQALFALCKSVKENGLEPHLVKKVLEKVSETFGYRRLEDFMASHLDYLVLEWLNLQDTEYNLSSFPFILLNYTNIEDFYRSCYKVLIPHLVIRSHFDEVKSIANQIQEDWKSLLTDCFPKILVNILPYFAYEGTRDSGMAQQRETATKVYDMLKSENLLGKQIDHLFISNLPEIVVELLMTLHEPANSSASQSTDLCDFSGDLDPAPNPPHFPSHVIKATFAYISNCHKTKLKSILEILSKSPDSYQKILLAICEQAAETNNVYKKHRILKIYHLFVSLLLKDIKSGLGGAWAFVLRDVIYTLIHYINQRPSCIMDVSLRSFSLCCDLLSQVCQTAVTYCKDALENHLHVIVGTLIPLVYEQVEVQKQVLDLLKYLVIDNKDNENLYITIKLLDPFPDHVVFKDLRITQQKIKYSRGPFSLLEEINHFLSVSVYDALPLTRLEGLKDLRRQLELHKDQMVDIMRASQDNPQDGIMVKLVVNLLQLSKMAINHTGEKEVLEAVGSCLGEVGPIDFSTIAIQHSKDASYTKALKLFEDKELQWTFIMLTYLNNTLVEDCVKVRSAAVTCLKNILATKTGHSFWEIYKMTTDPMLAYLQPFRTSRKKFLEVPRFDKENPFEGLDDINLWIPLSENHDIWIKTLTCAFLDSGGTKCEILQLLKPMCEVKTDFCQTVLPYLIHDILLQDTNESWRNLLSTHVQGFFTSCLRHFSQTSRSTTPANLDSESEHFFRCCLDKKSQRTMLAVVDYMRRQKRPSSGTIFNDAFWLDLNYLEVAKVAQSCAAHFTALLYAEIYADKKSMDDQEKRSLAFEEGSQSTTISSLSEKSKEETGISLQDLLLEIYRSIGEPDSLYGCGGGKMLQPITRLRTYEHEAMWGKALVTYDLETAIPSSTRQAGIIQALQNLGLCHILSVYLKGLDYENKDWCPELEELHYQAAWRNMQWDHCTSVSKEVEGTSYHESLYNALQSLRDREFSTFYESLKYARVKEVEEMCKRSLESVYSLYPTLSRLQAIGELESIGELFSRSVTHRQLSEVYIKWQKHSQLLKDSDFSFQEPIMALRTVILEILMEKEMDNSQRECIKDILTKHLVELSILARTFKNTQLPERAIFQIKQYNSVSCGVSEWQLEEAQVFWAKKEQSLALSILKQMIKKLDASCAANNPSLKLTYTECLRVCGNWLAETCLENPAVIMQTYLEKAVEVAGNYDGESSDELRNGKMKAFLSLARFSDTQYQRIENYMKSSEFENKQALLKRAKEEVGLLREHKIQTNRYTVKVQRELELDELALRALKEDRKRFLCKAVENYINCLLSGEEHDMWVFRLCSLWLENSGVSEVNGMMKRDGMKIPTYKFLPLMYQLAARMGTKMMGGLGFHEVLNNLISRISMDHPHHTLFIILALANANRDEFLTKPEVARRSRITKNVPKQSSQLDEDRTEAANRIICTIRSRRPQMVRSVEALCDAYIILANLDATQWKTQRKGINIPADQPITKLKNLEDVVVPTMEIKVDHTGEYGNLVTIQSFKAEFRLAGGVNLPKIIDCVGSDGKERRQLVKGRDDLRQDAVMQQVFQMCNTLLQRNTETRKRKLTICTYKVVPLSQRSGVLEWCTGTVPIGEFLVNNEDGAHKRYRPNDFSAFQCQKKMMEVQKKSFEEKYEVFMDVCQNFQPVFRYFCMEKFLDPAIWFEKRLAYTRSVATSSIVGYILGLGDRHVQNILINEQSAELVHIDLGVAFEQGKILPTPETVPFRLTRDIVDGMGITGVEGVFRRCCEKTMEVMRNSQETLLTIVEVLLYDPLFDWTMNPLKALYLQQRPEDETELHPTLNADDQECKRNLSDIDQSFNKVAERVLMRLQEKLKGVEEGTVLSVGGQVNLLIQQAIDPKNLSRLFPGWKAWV

ATR [4] = biological target: T4, ATR (Homo sapiens, UniProt Q13535); assay: as above; type: binding
PIP4K2C = PIP4K2C (Homo sapiens, UniProt Q8TBX8); assay: as above; type: binding
Chain of PIP4K2C (Q8TBX8 whole entry, species assumed): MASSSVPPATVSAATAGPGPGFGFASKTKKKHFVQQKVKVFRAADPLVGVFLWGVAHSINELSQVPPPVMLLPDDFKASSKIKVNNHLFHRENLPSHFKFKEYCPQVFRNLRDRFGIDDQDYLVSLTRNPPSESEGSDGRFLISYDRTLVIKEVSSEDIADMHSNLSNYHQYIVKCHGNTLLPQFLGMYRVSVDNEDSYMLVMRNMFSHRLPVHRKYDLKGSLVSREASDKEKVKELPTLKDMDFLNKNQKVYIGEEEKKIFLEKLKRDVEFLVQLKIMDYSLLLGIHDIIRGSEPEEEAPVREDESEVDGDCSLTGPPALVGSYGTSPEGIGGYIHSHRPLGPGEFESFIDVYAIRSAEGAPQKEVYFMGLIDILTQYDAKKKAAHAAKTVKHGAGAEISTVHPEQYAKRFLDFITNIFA

PIP5K3 = PIP5K3 (Homo sapiens, UniProt Q9Y2I7); assay: as above; type: binding
SMG1 = SMG1 (Homo sapiens, UniProt Q96Q15); assay: as above; type: binding
ATR [5] = biological target: T4, ATR; assay: ATR cellular activity, S317 of Chk1 after UV radiation, HCT-116 cells; type: cell-based
ATM [6] = biological target: T3, ATM; type: cell-based
mTORC1 [7] = biological target: T1, mTORC1; details: 0.5 µM inhibitor 1 hour, then 500 µM ATP
mTORC1 [8] = biological target: T1, mTORC1; details: cited from earlier work
T308 of Akt = assay: Western blot of T308 of Akt in HCT-116 cells; type: cell-based; details: Homo sapiens, HCT-116, read-out: EC50, T308 of Akt
H2122 = assay: Tumor cell growth assay; type: cell-based; details: Homo sapiens, NCI-H2122, 72 h
H358 = assay: Tumor cell growth assay; type: cell-based; details: Homo sapiens, NCI-H358, 72 h
H1792 = assay: Tumor cell growth assay; type: cell-based; details: Homo sapiens, NCI-H1792, 72 h
A549 = assay: Tumor cell growth assay; type: cell-based; details: Homo sapiens, A549, 72 h
H441 = assay: Tumor cell growth assay; type: cell-based; details: Homo sapiens, NCI-H441, 72 h
H1355 = assay: Tumor cell growth assay; type: cell-based; details: Homo sapiens, NCI-H1355, 72 h
H460 = assay: Tumor cell growth assay; type: cell-based; details: Homo sapiens, NCI-H460, 72 h
HCT-116 = assay: Tumor cell growth assay; type: cell-based; details: Homo sapiens, HCT-116, 72 h
H1299 = assay: Tumor cell growth assay; type: cell-based; details: Homo sapiens, NCI-H1299, 72 h
H292 = assay: Tumor cell growth assay; type: cell-based; details: Homo sapiens, NCI-H292, 72 h
BT-20 = assay: Tumor cell growth assay; type: cell-based; details: Homo sapiens, BT-20, 72 h
HS578T = assay: Tumor cell growth assay; type: cell-based; details: Homo sapiens, Hs-578T, 72 h
MCF10A = assay: Tumor cell growth assay; type: cell-based; details: Homo sapiens, MCF-10A, 72 h
MCF7 = assay: Tumor cell growth assay; type: cell-based; details: Homo sapiens, MCF7, 72 h
MDAMB231 = assay: Tumor cell growth assay; type: cell-based; details: Homo sapiens, MDA-MB-231, 72 h
SKBR3 = assay: Tumor cell growth assay; type: cell-based; details: Homo sapiens, SK-BR-3, 72 h
Hela = assay: Tumor cell growth assay; type: cell-based; details: Homo sapiens, 72 h
Human mTORC1 complex = Human mTORC1 complex (Homo sapiens, UniProt P42345); assay: ATP competition assay; details: biochemical kinase assays with increasing ATP concentrations
[9] = system: human fibroblast AG01522 cell line; assay: Ionizing irradiation assay, clonogenic cell survival; type: cell-based; details: AG01522, added 30min before irradiation
[10] = system: HCT116 cells, AktT308 phosphorylation; assay: Longer-term cellular signaling analysis; type: cell-based; details: 100 nM
[11] = system: HeLa cells, AktT308 phosphorylation; assay: Longer-term cellular signaling analysis; type: cell-based; details: 100 nM
[12] = system: cancer cell lines (HCT116, Hela, Calu 1, H226, H358); assay: Apoptosis assay, PARP cleavage by western blot; type: cell-based; details: 16 hours
Hela cells = assay: Autophagy assay, acridine orange staining; type: cell-based; details: 72 h
[13] = system: HCT-116, Hela, Calu-1, H358 and H226; assay: Autophagy assay, LC3B staining and western blot; type: cell-based; details: 5 cell lines, 3 days
Hela S3 cells = assay: Cell cycle analysis by FACS; type: cell-based; details: Hela S3, 48 hrs
mTOR = assay: Pharmacodynamics by immunohistochemistry in KRAS G12D lung tumors; type: in vivo, Mice
ATR kinase = assay: as above; type: in vivo, Mice; details: after 4-week treatment
mTORC1 [14] = biological target: T1, mTORC1; details: combined biochemical and cellular profiling summary
mTORC2 [15] = biological target: T2, mTORC2; details: combined biochemical and cellular profiling summary
DNA-PK = DNA-PK (Homo sapiens, UniProt P78527); details: combined biochemical and cellular profiling summary
[16] = combined biochemical and cellular profiling summary
[17] = 2-day, 40 mg/kg single daily dosing

Cn1cnc2c(F)c(Nc3ccc(Br)cc3Cl)c(C(=O)NOCCO)cc21 [AZD6244]
tumor volume / tumor growth by MRI (KRAS-driven lung tumors): neither Torin2 (40 mg/kg, q.d.) nor AZD6244 (25 mg/kg, q.d.) alone resulted in a significant inhibition of tumor volume
pERK by immunohistochemistry (pERK; 2-day, AZD6244 25 mg/kg): profound inhibition
pERK1/2 levels (pERK): slightly recovered

COc1ccc(-c2ccc3c(N4CCOC[C@@H]4C)nc(N4CCOC[C@@H]4C)nc3n2)cc1CO [AZD8055, reference compound]
sensitivity of proliferation, Calu1 (Calu1): relatively more resistant
time for S6KT389 phosphorylation (mTORC1 function) to recover after wash-out (mTORC1 [1]): ≤ 1 h
time for AktS473 phosphorylation (mTORC2 function) to recover after wash-out (mTORC2 [2]): ≤ 1 h

CCC(=O)N1CCN(c2ccc(-n3c(=O)ccc4cnc5ccc(-c6cnc7ccccc7c6)cc5c43)cc2C(F)(F)F)CC1 [Torin1, 1-(4-(4-propionylpiperazin-1-yl)-3-(trifluoromethyl)phenyl)-9-(quinolin-3-yl)benz o[h][1,6]naphthyridin-2(1H)-one]
IC50 (ATM [3]): 640 nM
IC50 (ATR [4]): < 10 nM
IC50 (PIP4K2C): > 10000 nM
IC50 (PIP5K3): > 10000 nM
IC50 (SMG1): 4400 nM
EC50 (ATR [5]): > 1000 nM
EC50 (ATM [6]): > 1000 nM
duration of sustained inhibition of mTORC1 kinase activity after removal of drug (mTORC1 [7]; 4EBP1 phosphorylation): approximately 75 minutes
duration of suppression of S6K T389 phosphorylation after removal of the drug (mTORC1 [8]): up to 16 h

Nc1ccc(-c2ccc3ncc4ccc(=O)n(-c5cccc(C(F)(F)F)c5)c4c3c2)cn1 [Torin2, 9-(6-aminopyridin-3-yl)-1-(3-(trifluoromethyl)phenyl)benzo[h][1,6]naphthyridin-2(1H)-one]
EC50 (T308 of Akt): < 10 nM
concentration at which ATR is inhibited (ATR [5]; [16]): 20 to 100 nM
concentration at which ATM is inhibited (ATM [6]; [16]): 20 to 100 nM
GI50 (H2122): 13.2 nM
GI50 (H358): 105 nM
GI50 (H1792): 19.8 nM
GI50 (A549): 31.1 nM
GI50 (H441): 20.5 nM
GI50 (H1355): 25.8 nM
GI50 (H460): 45.7 nM
GI50 (HCT-116): 60.7 nM
GI50 (H1299): 23.6 nM
GI50 (H292): 10.1 nM
GI50 (BT-20): 219 nM
GI50 (HS578T): 62.4 nM
GI50 (MCF10A): 32.1 nM
GI50 (MCF7): 41.1 nM
GI50 (MDAMB231): 108 nM
GI50 (SKBR3): 123 nM
GI50 (Hela): 29.3 nM
sensitivity of proliferation, Calu1 (Calu1): relatively more resistant
mode of mTOR inhibition (Human mTORC1 complex): ATP-competitive fashion
time for AktS473 phosphorylation (mTORC2 function) to recover after wash-out (mTORC2 [2]): approximately 4 hours
sensitization of IR treatment, clonogenic survival [9]: dose dependent sensitization of the IR treatment
recovery of AktT308 phosphorylation by 72 hours [10]: partially
recovery of AktT308 phosphorylation by 72 hours [11]: completely recovered
apoptosis (PARP cleavage) in H358 [12]: induced strong apoptosis
punctate acridine orange staining (autophagy) (Hela cells): dose dependent increase in punctate acridine staining
LC3-1/II autophagosome markers [13]: dose dependent increase of LC3-1/II autophagosome markers
cell cycle distribution by flow cytometry (Hela S3 cells): dose-dependent decrease in G1 cells and an increase in S-phase, sub-G1 phase cells and cell death
tumor volume / tumor growth by MRI (KRAS-driven lung tumors): did not yield significant efficacy; also recorded: neither Torin2 (40 mg/kg, q.d.) nor AZD6244 (25 mg/kg, q.d.) alone resulted in a significant inhibition of tumor volume
pAkt(T308) by immunohistochemistry (mTOR; [17]): partly suppressed
pS6K(T389) and p4EBP1(T37/46) by immunohistochemistry (mTOR; [17]): strongly suppressed
pS6K(T389) and p4EBP1(T37/46) levels (mTOR; after 4-week treatment): showed some recovery
pERK1/2 levels (pERK): significantly increased
pCHK1(S345) (ATR kinase): slightly decreased
concentration at which mTORC1 is inhibited (mTORC1 [14]): less than 10 nM
concentration at which mTORC2 is inhibited (mTORC2 [15]): less than 10 nM
concentration at which PI3K is inhibited (PI3K; [16]): above 200 nM
EC50 (PI3K; read-out: apparent EC50 against T308 with S473D mutant of Akt, PC3 AktS473D cell line): 200 nM
concentration at which DNA-PK is inhibited (DNA-PK): 20 to 100 nM
recovery of mTORC1 kinase activity after removal of drug (mTORC1 [7]; about 75 minutes window): sustained inhibition of mTORC1
